Active and inactive are the calls of the source.
What was measured:
[1] = biological target: T1, Sentrin-specific protease 6 (Homo sapiens, UniProt Q9GZR1); format: functional;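 also: Luminescence-based dose-response confirmatory assay of SENP6 inhibition, following up an ultra-high-throughput screen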
T1 sequence (Q9GZR1 whole entry): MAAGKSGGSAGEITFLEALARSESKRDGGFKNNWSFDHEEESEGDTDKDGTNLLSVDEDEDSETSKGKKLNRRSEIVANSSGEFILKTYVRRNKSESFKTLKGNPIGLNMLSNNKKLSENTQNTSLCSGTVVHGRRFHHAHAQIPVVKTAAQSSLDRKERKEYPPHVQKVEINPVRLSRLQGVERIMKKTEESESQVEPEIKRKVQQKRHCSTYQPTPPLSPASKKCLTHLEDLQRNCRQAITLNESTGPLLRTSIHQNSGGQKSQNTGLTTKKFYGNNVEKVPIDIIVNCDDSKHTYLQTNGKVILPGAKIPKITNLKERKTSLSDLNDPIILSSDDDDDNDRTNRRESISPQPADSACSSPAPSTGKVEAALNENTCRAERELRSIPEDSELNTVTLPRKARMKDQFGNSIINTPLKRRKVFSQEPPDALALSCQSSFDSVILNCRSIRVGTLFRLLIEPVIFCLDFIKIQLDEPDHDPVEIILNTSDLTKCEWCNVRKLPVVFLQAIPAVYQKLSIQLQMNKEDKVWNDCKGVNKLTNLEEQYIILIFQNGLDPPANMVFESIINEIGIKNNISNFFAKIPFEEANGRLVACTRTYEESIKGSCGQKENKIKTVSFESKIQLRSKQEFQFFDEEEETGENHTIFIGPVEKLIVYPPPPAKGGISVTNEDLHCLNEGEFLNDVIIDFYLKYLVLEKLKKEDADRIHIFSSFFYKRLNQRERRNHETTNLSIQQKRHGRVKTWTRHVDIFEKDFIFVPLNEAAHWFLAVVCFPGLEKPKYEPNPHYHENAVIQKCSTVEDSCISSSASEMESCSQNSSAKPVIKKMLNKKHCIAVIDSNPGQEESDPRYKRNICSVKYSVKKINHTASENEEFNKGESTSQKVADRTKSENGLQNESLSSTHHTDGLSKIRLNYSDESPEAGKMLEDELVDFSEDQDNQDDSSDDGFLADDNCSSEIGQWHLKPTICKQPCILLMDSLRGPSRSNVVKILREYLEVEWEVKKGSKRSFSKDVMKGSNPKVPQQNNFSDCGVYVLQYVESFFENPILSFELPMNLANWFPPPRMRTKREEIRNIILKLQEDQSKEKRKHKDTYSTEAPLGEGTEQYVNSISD

[2] = biological target: Serine/threonine-protein phosphatase PP1-alpha catalytic subunit (Homo sapiens, UniProt P62136); experiment: inhibition of protein phosphatase 1 activity – biochemical, fluorescence, dose response (AID 2394)
Escherichia coli = experiment: microbe, parasite or virus in culture
[3] = biological target: T2, Endoribonuclease toxin MazF (Escherichia coli K-12, UniProt P0AE70); experiment: substrate-only fluorescence increase artefacts – biochemical, single-stranded RNase substrate, counter-screen for MazEF activator project, dose response (AID 588502); format: functional
[4] = biological target: T2, Endoribonuclease toxin MazF; experiment: activation of MazEF endoribonuclease cleavage – biochemical, fluorescence, single-stranded RNA substrate, uHTS hits, dose response (AID 588481); format: functional
[5] = Trypanosoma cruzi growth suppression in host cells – NIH3T3 host cells, beta-gal luminescence, confirmation (AID 2044); format: functional, cell-based;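 also: intracellular parasites grown in NIH/3T3 mouse fibroblasts as host cells; luminescent beta-galactosidase reporter signal from transgenic T. cruzi replicating inside host cells; inhibitors lower the luminescence signal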
[6] = reduction of Shn3 3'UTR-driven luciferase in osteoblasts – cell-based, Clone20 osteoblasts, firefly luciferase, cherry-picked, dose response (AID 624132); format: functional;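 also: firefly luciferase luminescence from reporter carrying the Shn3 3'UTR in osteoblasts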
HEK293 = experiment: EBV LMP1 TES2 canonical NF-kB signalling blockers – cell-based, HEK293, luciferase, cherry-pick, dose response (AID 588343); format: functional; conditions: Homo sapiens
[7] = HEK-293T viability loss after treatment – luminescence, T-cell screen hits, cytotoxicity control for TCR NF-kB inhibitor project, dose response (AID 489026); format: functional, cell-based;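 also: cells exposed to compound about 14 hours before the viability readout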
cells = format: functional, cell-based
BJ = experiment: cells; format: functional, cell-based; conditions: Homo sapiens
[8] = Reduced DLD-1 viability, concentration-response, CellTiter-Glo luminescence (AID 1117352); format: functional
[9] = biological target: Induced myeloid leukemia cell differentiation protein Mcl-1 (Homo sapiens, UniProt Q07820); format: functional
Induced myeloid leukemia cell differentiation protein Mcl-1, sequence (Q07820 whole entry): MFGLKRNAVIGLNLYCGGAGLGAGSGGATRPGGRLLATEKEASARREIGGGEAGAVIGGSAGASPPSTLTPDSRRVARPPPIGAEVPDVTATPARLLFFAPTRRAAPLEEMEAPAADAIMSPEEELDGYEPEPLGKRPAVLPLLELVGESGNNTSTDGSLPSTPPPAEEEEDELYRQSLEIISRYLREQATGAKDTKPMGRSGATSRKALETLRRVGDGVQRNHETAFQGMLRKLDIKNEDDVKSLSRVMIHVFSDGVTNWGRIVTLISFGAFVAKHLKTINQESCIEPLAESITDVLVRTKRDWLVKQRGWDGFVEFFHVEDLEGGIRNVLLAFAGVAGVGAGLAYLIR

T2 sequence (P0AE70 whole entry): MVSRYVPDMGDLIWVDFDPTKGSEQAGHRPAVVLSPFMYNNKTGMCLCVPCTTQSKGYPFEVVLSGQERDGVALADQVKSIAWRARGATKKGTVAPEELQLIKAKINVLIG
Serine/threonine-protein phosphatase PP1-alpha catalytic subunit, sequence (P62136 whole entry): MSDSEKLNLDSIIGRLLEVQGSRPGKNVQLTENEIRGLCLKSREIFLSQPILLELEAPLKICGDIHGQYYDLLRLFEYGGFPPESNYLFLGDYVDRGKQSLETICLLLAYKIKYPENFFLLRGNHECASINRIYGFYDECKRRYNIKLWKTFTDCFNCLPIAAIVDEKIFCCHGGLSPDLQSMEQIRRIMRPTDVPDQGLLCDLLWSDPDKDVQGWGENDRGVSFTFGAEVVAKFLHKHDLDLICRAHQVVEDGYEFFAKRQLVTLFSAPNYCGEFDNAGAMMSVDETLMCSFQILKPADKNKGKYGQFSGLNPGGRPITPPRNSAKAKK

N#Cc1c(N2CCCCC2)nc(N)c2c(N)nc(SCC(=O)O)cc12
IC50 [1]: 8.26 µM (active)
IC50 [2]: 44.1 µM (not active)

O=[N+]([O-])c1ccc(Sc2cccc[n+]2[O-])c2nonc12
AC50 (Escherichia coli): 5.53 µM (active)
EC50 [3]: > 99 µM (inactive)
EC50 [4]: > 99 µM (inactive)

CCCC(=O)NC(c1ccc(C(C)C)cc1)c1ccc2cccnc2c1O (stereo not drawn)
EC50 [5]: 0.227 µM (active)
AC50 [6]: 0.47 µM (active)
AC50 (HEK293): 5.04 µM (active)
IC50 [7]: > 80 µM (inactive)
EC50 (cells): > 350 µM (not active)
EC50 (BJ): 2.91 µM (active)

Oc1c(Cl)cc(Cl)c(Cl)c1Cc1c(O)c(Cl)cc(Cl)c1Cl [HEXACHLOROPHENE]
IC50 [8]: 0.0157 µM (active)
IC50 [9]: 14.8 µM (active)
